Reference: patent US9617244B2, “Antibacterial quinoline derivatives” (JANSSEN PHARMACEUTICA NV, priority 2012, dated 2017)
Where a name gives a salt, the structure may show the parent alone.

SMILES | melting point [°C]
COc1nc2ccc(Cl)cc2cc1C(c1ccc(Cl)cc1)C1(O)CCNC(c2ccc3ccccc3c2)C1 (stereo not drawn) (as salt: fumarate) [Compound 430] | 184
COc1nc2ccc(Cl)cc2cc1C(c1ccc(Cl)cc1)C1(O)CCNC(c2ccc3ccccc3c2)C1 (stereo not drawn) (as salt: fumarate) [Compound 431] | 178
COc1nc2ccc(Cl)cc2cc1C(c1ccc(Cl)cc1)C1(O)CCNC(c2ccc3ccccc3c2)C1 (stereo not drawn) (as salt: fumarate) [Compound 432] | 167
COc1nc2ccccc2cc1C(c1ccccc1)C1(O)CCNC(c2ccc(F)cc2C)C1 (stereo not drawn) (as salt: fumaric acid salt) [Compound 16] | 166 to 168
O=c1[nH]c2ccc(Br)cc2cc1C(c1ccc(Cl)cc1)C1(O)CCNC(Cc2ccc(F)c(F)c2)C1 (stereo not drawn) (as salt: hydrochloride) [Compound 40] | 224
O=c1[nH]c2ccc(Br)cc2cc1C(c1ccc(Cl)cc1)C1(O)CCNCC1Cc1cccc(F)c1 (stereo not drawn) (as salt: hydrochloride) [Compound 49] | 183
O=c1[nH]c2ccc(Br)cc2cc1C(c1cccc(Cl)c1)C1(O)CCNC(Cc2ccccc2)C1 (stereo not drawn) (as salt: hydrochloride) [Compound 85] | > 260
Cc1cc(F)ccc1C1CC(O)(C(c2ccc(Cl)cc2)c2cc3cc(Br)ccc3[nH]c2=O)CCN1 (stereo not drawn) (as salt: hydrochloride) [Compound 106] | > 250
O=c1[nH]c2ccc(Br)cc2cc1[C@@H](c1ccc(Cl)cc1)[C@]1(O)CCNC(Cc2ccccc2)C1 (stereo partly drawn) (as salt: hydrochloride) [Compound 121] | > 260
O=c1[nH]c2ccc(Br)cc2cc1C(c1ccc(Cl)cc1)C1(O)CCNC(Cc2ccc(F)c(F)c2)C1 (stereo not drawn) (as salt: hydrochloride) [Compound 126] | > 260
CC1CC(O)(C(c2ccc(Cl)cc2)c2cc3cc(Br)ccc3[nH]c2=O)CCN1 (stereo not drawn) (as salt: hydrochloride) [Compound 129] | 240
CC1CC(O)(C(c2ccc(Cl)cc2)c2cc3cc(Br)ccc3[nH]c2=O)CCN1 (stereo not drawn) (as salt: hydrochloride) [Compound 130] | 200
CC1CC(O)(C(c2ccc(Cl)cc2)c2cc3cc(Br)ccc3[nH]c2=O)CCN1 (stereo not drawn) (as salt: hydrochloride) [Compound 131] | 241
CC1CC(O)(C(c2ccc(Cl)cc2)c2cc3cc(Br)ccc3[nH]c2=O)CCN1 (stereo not drawn) (as salt: hydrochloride) [Compound 132] | 244
O=c1[nH]c2ccc(Br)cc2cc1C(c1ccc(Cl)cc1)C1(O)CCNC(Cc2ccc(F)c(F)c2)C1 (stereo not drawn) (as salt: hydrochloride) [Compound 134] | 233
Cc1cc(F)ccc1C1CC(O)(C(c2cccc(Cl)c2)c2cc3cc(Br)ccc3[nH]c2=O)CCN1 (stereo not drawn) (as salt: hydrochloride) [Compound 135] | > 250
Cc1cc(F)ccc1C1CC(O)(C(c2cccc(Cl)c2)c2cc3cc(S(C)(=O)=O)ccc3[nH]c2=O)CCN1 (stereo not drawn) (as salt: hydrochloride) [Compound 159] | > 250
CSc1ccc2[nH]c(=O)c(C(c3cccc(Cl)c3)C3(O)CCNC(c4ccc(F)cc4C)C3)cc2c1 (stereo not drawn) (as salt: hydrochloride) [Compound 160] | > 250
Cc1cc(F)ccc1C1CC(O)(C(c2ccccc2)c2cc3cc(Br)ccc3[nH]c2=O)CCN1 (stereo not drawn) (as salt: hydrochloride) [Compound 192] | > 250
CS(=O)(=O)c1ccc2[nH]c(=O)c(C(c3ccc(Cl)cc3)C3(O)CCNC(Cc4ccc(F)c(F)c4)C3)cc2c1 (stereo not drawn) (as salt: hydrochloride) [Compound 212] | > 250
Cc1cc(F)ccc1C1CC(O)(C(c2ccc(Cl)cc2)c2cc3cc(S(C)(=O)=O)ccc3[nH]c2=O)CCN1 (stereo not drawn) (as salt: hydrochloride) [Compound 220] | > 250
O=c1[nH]c2ccc(Br)cc2cc1C(c1ccc(Cl)cc1)C1(O)CCNCC1Cc1cccc(F)c1 (stereo not drawn) (as salt: hydrochloride) [Compound 229] | > 250
CSc1ccc2[nH]c(=O)c(C(c3ccc(Cl)cc3)C3(O)CCNC(c4ccccc4)C3)cc2c1 (stereo not drawn) (as salt: hydrochloride) [Compound 230] | > 250
Cc1cc(F)ccc1C1CC(O)(C(c2ccccc2)c2cc3cc(-c4cccnc4)ccc3[nH]c2=O)CCN1 (stereo not drawn) (as salt: hydrochloride) [Compound 236] | > 250
Cc1cc(F)ccc1C1CC(O)(C(c2ccccc2)c2cc3cc(S(C)(=O)=O)ccc3[nH]c2=O)CCN1 (stereo not drawn) (as salt: hydrochloride) [Compound 237] | > 250
O=c1[nH]c2ccc(Cl)cc2cc1C(c1ccc(Cl)cc1)C1(O)CCNC(Cc2ccccc2)C1 (stereo not drawn) (as salt: hydrochloride) [Compound 239] | > 250
O=c1[nH]c2ccc(Br)cc2cc1C(c1ccc(Cl)cc1)C1(O)CCNC(CC2CCCCC2)C1 (stereo not drawn) (as salt: hydrochloride) [Compound 254] | > 250

SMILES | melting point [°C]
CSc1ccc2[nH]c(=O)c(C(c3ccc(Cl)cc3)C3(O)CCNC(c4ccc(F)cc4C)C3)cc2c1 (stereo not drawn) (as salt: hydrochloride) [Compound 266] | > 250
CSc1ccc2[nH]c(=O)c(C(c3ccc(Cl)cc3)C3(O)CCNC(Cc4ccc(F)cc4)C3)cc2c1 (stereo not drawn) (as salt: hydrochloride) [Compound 281] | > 250
CSc1ccc2[nH]c(=O)c(C(c3ccc(Cl)cc3)C3(O)CCNC(Cc4ccc(F)cc4)C3)cc2c1 (stereo not drawn) (as salt: hydrochloride) [Compound 282] | 206
CSc1ccc2[nH]c(=O)c(C(c3ccc(Cl)cc3)C3(O)CCNC(CC4CCCCC4)C3)cc2c1 (stereo not drawn) (as salt: hydrochloride) [Compound 295] | > 250
Cc1cc(F)ccc1C1CC(O)(C(c2ccc(Cl)cc2)c2cc3cc(Cl)ccc3[nH]c2=O)CCN1 (stereo not drawn) (as salt: hydrochloride) [Compound 303] | > 250
CS(=O)(=O)c1ccc2[nH]c(=O)c(C(c3cccc(Cl)c3)C3(O)CCNC(Cc4ccc(F)cc4F)C3)cc2c1 (stereo not drawn) (as salt: hydrochloride) [Compound 307] | 232
CS(=O)(=O)c1ccc2[nH]c(=O)c(C(c3cccc(Cl)c3)C3(O)CCNC(Cc4ccc(F)cc4F)C3)cc2c1 (stereo not drawn) (as salt: hydrochloride) [Compound 308] | > 260
CSc1ccc2[nH]c(=O)c(C(c3cccc(Cl)c3)C3(O)CCNC(Cc4ccc(F)cc4F)C3)cc2c1 (stereo not drawn) (as salt: hydrochloride) [Compound 309] | > 260
CSc1ccc2[nH]c(=O)c(C(c3cccc(Cl)c3)C3(O)CCNC(Cc4ccc(F)cc4F)C3)cc2c1 (stereo not drawn) (as salt: hydrochloride) [Compound 310] | 126
O=c1[nH]c2ccc(Br)cc2cc1C(c1ccc(Cl)cc1)C1(O)CCNC(Cc2ccc(F)cc2F)C1 (stereo not drawn) (as salt: hydrochloride) [Compound 314] | 234
O=c1[nH]c2ccc(Br)cc2cc1C(c1ccc(Cl)cc1)C1(O)CCNC(Cc2ccc(F)cc2F)C1 (stereo not drawn) (as salt: hydrochloride) [Compound 315] | > 260
O=c1[nH]c2ccc(Br)cc2cc1C(c1ccc(Cl)cc1)C1(O)CCNC(Cc2ccc(F)cc2F)C1 (stereo not drawn) (as salt: hydrochloride) [Compound 322] | 248
CS(=O)(=O)c1ccc2[nH]c(=O)c(C(c3cccc(Cl)c3)C3(O)CCNC(Cc4ccc(F)cc4F)C3)cc2c1 (stereo not drawn) (as salt: hydrochloride) [Compound 327] | 248
CSc1ccc2[nH]c(=O)c(C(c3ccc(Cl)cc3)C3(O)CCNC(Cc4ccc(F)cc4)C3)cc2c1 (stereo not drawn) (as salt: hydrochloride) [Compound 334] | 232
O=c1[nH]c2ccc(Br)cc2cc1C(c1ccc(Cl)cc1)C1(O)CCNC(Cc2ccc(F)cc2)C1 (stereo not drawn) (as salt: hydrochloride) [Compound 341] | > 260
O=c1[nH]c2ccc(Cl)cc2cc1C(c1ccc(Cl)cc1)C1(O)CCNC(Cc2ccc(F)cc2)C1 (stereo not drawn) (as salt: hydrochloride) [Compound 343] | > 250
CSc1ccc(C(c2cc3cc(Cl)ccc3[nH]c2=O)C2(O)CCNC(c3ccc(F)cc3C)C2)cc1 (stereo not drawn) (as salt: hydrochloride) [Compound 349] | > 250
O=c1[nH]c2ccc(Br)cc2cc1C(c1ccc(Cl)cc1)C1(O)CCNC(Cc2ccc(F)cc2)C1 (stereo not drawn) (as salt: hydrochloride) [Compound 365] | 242
O=c1[nH]c2ccc(F)cc2cc1C(c1ccc(Cl)cc1)C1(O)CCNC(Cc2ccccc2)C1 (stereo not drawn) (as salt: hydrochloride) [Compound 375] | > 250
O=c1[nH]c2ccc(Cl)cc2cc1C(c1ccc(Cl)cc1)C1(O)CCNCC1F (stereo not drawn) (as salt: hydrochloride) [Compound 457] | > 250
COc1nc2ccc(Br)cc2cc1C(c1ccc(Cl)cc1)C1(O)CCN(Cc2ccccc2)CC1C (stereo not drawn) (as salt: salt) [Compound 25] | 154
COc1nc2ccc(Br)cc2cc1C(c1ccc(Cl)cc1)C1(O)CCN(Cc2ccccc2)CC1C (stereo not drawn) (as salt: salt) [Compound 26] | 238
COc1nc2ccc(SC)cc2cc1C(c1cccc(Cl)c1)C1(O)CCNC(Cc2ccc(F)cc2F)C1 (stereo not drawn) (as salt: trifluoroacetate) [Compound 50] | 208
COc1nc2ccc(Br)cc2cc1C(c1ccc(Cl)cc1)C1(O)CCNC(Cc2ccc(F)cc2F)C1 (stereo not drawn) (as salt: trifluoroacetate) [Compound 51] | 176
COc1nc2ccc(S(C)(=O)=O)cc2cc1C(c1ccc(Cl)cc1)C1(O)CCNC(Cc2ccc(F)cc2F)C1 (stereo not drawn) (as salt: trifluoroacetate) [Compound 305] | 133
COc1nc2ccc(S(C)(=O)=O)cc2cc1C(c1ccc(Cl)cc1)C1(O)CCNC(Cc2ccc(F)cc2F)C1 (stereo not drawn) (as salt: trifluoroacetate) [Compound 306] | 157
COc1nc2ccc(Br)cc2cc1C(c1ccc(Cl)cc1)C1(O)CCNC(Cc2ccc(F)cc2F)C1 (stereo not drawn) (as salt: trifluoroacetate) [Compound 313] | 147
